In PubChem BioAssay AID720632 (Broad Institute, 2013):
Active and inactive are the calls of the source. The rule behind the calls is not given here.

The compounds below were run against Caspase-6 (Homo sapiens) (UniProt P55212) (assay: inhibition of CASP6 peptide cleavage – biochemical, VEID-R110 fluorescence, cherry-pick, dose response (AID 720632)). Settings: caspase-6, VEID-R110 fluorogenic substrate.
Caspase-6 (Homo sapiens), sequence (P55212 24-179 limits assumed): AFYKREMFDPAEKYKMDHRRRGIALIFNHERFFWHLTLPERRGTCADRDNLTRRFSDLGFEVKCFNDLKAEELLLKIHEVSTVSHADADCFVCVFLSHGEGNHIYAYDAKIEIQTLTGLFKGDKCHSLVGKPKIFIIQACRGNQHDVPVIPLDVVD
Caspase-6 (Homo sapiens), sequence (P55212 194-293 limits assumed): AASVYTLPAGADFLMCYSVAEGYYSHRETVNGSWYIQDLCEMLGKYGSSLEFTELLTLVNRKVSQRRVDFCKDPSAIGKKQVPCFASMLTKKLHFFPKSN

SMILES	AC50
C[CH2][Hg][S]c1ccccc1C(=O)O	6.91 µM

Same assay, conditions: caspase-6, VEID-R110 fluorogenic substrate; at 8 µM (top of the series)

SMILES	activity change, negative = inhibition
CN(C)CCCN(C(=O)c1ccc([N+](=O)[O-])s1)c1nc2cc3c(cc2s1)OCCO3	inactive

Same assay, conditions: caspase-6, VEID-R110 fluorogenic substrate; at 23.5 µM (top of the series)

SMILES	activity change, negative = inhibition
CCC(=O)Nc1ccc2c(c1)OC[C@@H](C)N(C(=O)CC)C[C@@H](C)[C@H](OC)CN(C)C2=O	inactive
CO[C@@H]1CN(C)C(=O)c2ccc(NC(=O)C3CC3)cc2OC[C@@H](C)N(Cc2cccc(F)c2)C[C@@H]1C	inactive

Same assay, conditions: caspase-6, VEID-R110 fluorogenic substrate; at 26 µM (top of the series)

SMILES	activity change, negative = inhibition
Cc1cc2c(NC(=O)Nc3ccc(C(F)(F)F)cc3)cccc2nn1	inactive
O=C(O)c1cccc(S(=O)(=O)NNc2ccccc2C(F)(F)F)c1	inactive
CCOC(=O)CC1C(=O)NCCN1S(=O)(=O)c1cccc(C(F)(F)F)c1 (stereo not drawn)	inactive
CC(C)CNC(=O)C1(C)CCCN1C(=O)Cc1cccc2ccccc12 (stereo not drawn)	inactive
Cc1ccc2c(c1)c1c(n2CC(O)CN2CCC(C)CC2)CCCC1 (stereo not drawn)	inactive
COc1ccc(C(=O)Nc2cc(C(=O)O)cc(C(=O)O)c2)cc1Cl	inactive
O=C(Nc1cccc(F)c1)c1coc(=O)c(Br)c1	inactive
COc1ccc2oc(C(=O)N3CCN(c4ncccn4)CC3)c(C)c2c1	inactive
CO[C@H]1CN(C)C(=O)c2ccc(NC(=O)C3CC3)cc2OC[C@@H](C)N(Cc2ccccc2)C[C@H]1C	inactive
COc1nc(C)c2cc(C)oc2n1	inactive
O=C(NC1CC2CCC(C1)N2Cc1ccccc1)c1ccccc1Br (stereo not drawn)	inactive
O=C(Nc1ccccc1)C1CCN(S(=O)(=O)c2ccc3c(c2)OCCO3)CC1	inactive
COc1ccccc1C(=O)Nc1ccc2c(c1)OC[C@H](C)N(CC1CC1)C[C@@H](C)[C@H](OC)CN(C)C2=O	inactive
COc1ccccc1NC(=O)c1ccccc1S(=O)(=O)c1ccc([N+](=O)[O-])cc1	inactive
CO[C@@H]1CN(C)C(=O)c2ccc(NC(C)=O)cc2OC[C@@H](C)N(C(=O)CC2CC2)C[C@@H]1C	inactive
Cc1cccc(C(=O)Nc2cccc(NC(=O)c3ccccc3)c2)c1	inactive
CCOc1ccc(N(CC(=O)Nc2cc(Cl)ccc2C)S(C)(=O)=O)cc1	inactive
CN(c1ccc(C(=O)Nc2ccc3c(c2)n(C)c(=O)n3C)cc1)S(C)(=O)=O	inactive
CCCN1C[C@@H](C)[C@@H](OC)CN(C)C(=O)c2ccc(NC(=O)CC)cc2OC[C@@H]1C	inactive
COCCNc1nc(-c2ccc(OC)cc2)c(-c2ccc(OC)cc2)s1	inactive
COP(=O)(OC)c1ccc(NCc2cc(O)ccc2O)cc1	inactive
NC[C@H](O)c1ccc(O)c(O)c1	inactive
CN(C)c1ccc2c(c1)[C@@H]1C[C@@H](CC(=O)NCc3ccccn3)O[C@@H](CO)[C@@H]1O2	inactive
CC(Nc1ccc2ccccc2c1)C(=O)N/N=C/c1ccncc1 (stereo not drawn)	inactive
Cc1cc(NC(=O)C23CC4CC(C2)CC(n2cnc([N+](=O)[O-])n2)(C4)C3)no1	inactive

SMILES	activity change, negative = inhibition
O=C(NC1CC1)c1c(O)c2ccccc2[nH]c1=O	inactive
CCN(CC)CCN(CC)Cc1ccccc1Br	inactive
CCCN1C[C@@H](C)[C@H](OC)CN(C)C(=O)c2ccc(NC(=O)c3ccccc3)cc2OC[C@@H]1C	inactive
COc1cccc(C(NC(=O)C2CCN(CCCOc3ccccc3)CC2)c2ccccn2)c1 (stereo not drawn)	inactive
O=C(C[C@@H]1C=C[C@@H](NC(=O)c2ccc(F)cc2)[C@@H](CO)O1)NCc1ccncn1	inactive
Cc1ccc(NC(=O)c2sc(C)nc2C)c(C)c1	inactive
O=[N+]([O-])c1ccc2nc(-c3ccccc3[N+](=O)[O-])[nH]c2c1	inactive
COCC(=O)Nc1ccc2c(c1)OC[C@@H](C)N(CC1CC1)C[C@@H](C)[C@H](OC)CN(C)C2=O	inactive
CCC(C)(C)NC(=O)CN(C(=O)CNS(=O)(=O)c1ccc(F)cc1)c1ccc2c(c1)OCCO2	inactive
O=C(N/N=C\c1ccc([N+](=O)[O-])o1)c1cncc(Br)c1	inactive
CCCN1C[C@H](C)[C@@H](OC)CN(C)C(=O)c2ccc(NC(=O)CC)cc2OC[C@H]1C	inactive
CN=C(Nc1cccnc1)c1cccc(C(F)(F)F)c1	inactive
O=C(NNS(=O)(=O)c1ccc(F)cc1)c1ccccc1F	inactive
COc1ccc(N2C(=O)Cc3ccccc3C2=O)cc1	inactive
O=C(Nc1ccc2c(c1)OCO2)C1Cc2c(-c3ccc4c(c3)OCO4)ccnc2O1 (stereo not drawn)	inactive
CC(=O)Oc1cc(C(=O)OCC(=O)N2CCc3ccccc3C2)cc(OC(C)=O)c1OC(C)=O	inactive
C[C@@H](NC(=O)C[C@@H]1CC[C@@H](NC(=O)CN2CCOCC2)[C@@H](CO)O1)c1ccccc1	inactive
O=C(O)c1ccc(Cn2cc(/C=C\[N+](=O)[O-])c3ccccc32)o1	inactive
Cc1c(Cl)cccc1NC(=O)Nc1cc(C(C)(C)C)on1	inactive
CCC(=O)Nc1ccc2c(c1)OC[C@@H](C)N(C(=O)CC)C[C@H](C)[C@@H](OC)CN(C)C2=O	inactive
O=[N+]([O-])c1ccccc1S(=O)(=O)Nc1nc2ccccc2s1	inactive
OC(CNC1CCCCC1)COCCOc1ccc(Br)cc1 (stereo not drawn)	inactive
CCCC(=O)Nc1ccc2c(c1)OC[C@@H](C)N(Cc1ccc(F)cc1)C[C@H](C)[C@@H](OC)CN(C)C2=O	inactive
Nc1cccnc1Oc1ccc(F)cc1F	inactive
COc1cc2sc(C)nc2c2ccccc12	inactive

SMILES	activity change, negative = inhibition
O=C(Cc1ccccn1)NCC[C@@H]1CC[C@@H](NC(=O)c2ccccc2F)[C@H](CO)O1	inactive
COc1cccc(CN(C)CC(O)COc2cc(Cl)ccc2Cl)c1 (stereo not drawn)	inactive
O=S(=O)(c1cccc2cccnc12)N1CCN(c2ccc(F)cc2)CC1	inactive
CCOC(=O)N1CCN(C(=O)Cc2ccccc2[N+](=O)[O-])CC1	inactive
Oc1ccc(Br)cc1CNc1cccc2cccnc12	inactive
CCC(=O)Nc1ccc2c(c1)OC[C@H](C)N(C(=O)CC)C[C@@H](C)[C@H](OC)CN(C)C2=O	inactive
CCCc1cc(-c2n[nH]c(C(=O)OCC)c2-c2cscn2)c(O)cc1O	inactive
CO[C@H]1CN(C)C(=O)c2ccc(NC(=O)C3CC3)cc2OC[C@@H](C)N(Cc2cccc(F)c2)C[C@H]1C	inactive
Nc1cccnc1Oc1ccc(F)cc1	inactive
CCOc1ccc(S(=O)(=O)NCCC(=O)NCC2(N3CCCCC3)CCCCC2)cc1	inactive
COc1ccc(C=Nc2cccc3ncccc23)cc1	inactive
Cc1ccc(-c2nc3ccc(Cl)cn3c2Cc2ccsc2)cc1	inactive
Cc1ccc(S(=O)(=O)N2CCC(C(=O)NCCCN3CCOCC3)CC2)cc1C	inactive
Oc1ccc(/C=N/n2c(-c3ccccc3)n[nH]c2=S)cc1Br	inactive
CN(C(=O)c1ccc(Cl)cc1)c1ccc(OCC(=O)Nc2cc(C(=O)O)ccc2Cl)cc1	inactive
Nc1ccc(C(=O)N/N=C/c2cn(Cc3ccc(F)cc3)c3ccccc23)cc1	inactive
O=C(Nc1nc2ccc([N+](=O)[O-])cc2s1)c1ccncc1	inactive
Cc1cc(C)nc(N2CCN(S(=O)(=O)c3ccc(F)cc3)CC2)n1	inactive
CCOCCCNC(=O)C1c2ccccc2Oc2ccccc21	inactive
CCC(C)CN1C(=O)CN(S(C)(=O)=O)CC1(C)C(=O)Nc1ccc2c(c1)OCCO2 (stereo not drawn)	inactive
O=C([C@@H]1[C@@H](CO)[C@@H]2Cn3c(cccc3=O)[C@@H]2N1Cc1cc(F)ccc1F)N1CCOCC1	inactive
O=C(COC(=O)c1ccc([N+](=O)[O-])o1)Nc1ccc2c(c1)OC(F)(F)O2	inactive
O=C(C1CCN(c2ccc(N3CCOCC3)nn2)CC1)N1CCc2ccccc2C1	inactive
COc1cccc(CN2CCc3[nH]c(=S)[nH]c(=O)c3C2)c1	inactive
